The source of these data is ChEMBL document CHEMBL1201862, “PubChem BioAssay data set” (2004).

Holding throughout (test): DTP human tumour cell line panel, 48 h
The test system of test [1] is KM12.
The test system of test [2] is HCT-116.
Test [3] has as its system Malme-3M.
Test [4] relates to CAKI-1.
Test [5] has as its system LOX IMVI.
The subject of test [6] is A498.
Test [7] concerns NCI-H522.
Test [8] has as its system MDA-MB-435.
In test [9] the test system is CCRF-CEM.
For test [10], the system named is MCF7.
The subject of test [11] is ACHN.
Test [12] deals with 786-0.
Test [13] concerns HT-29.
Test [14] deals with MOLT-4.
The test system of test [15] is EKVX.
Test [16] deals with HOP-92.
Test [17] deals with OVCAR-8.
Test [18] deals with SF-295.
For test [19], the system named is A549.
Test [20] has as its system SK-OV-3.

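1) Cells in 96-well plates. 2) Compound, 48 h, 5 concentrations. 3) Linear interpolation between surrounding doses. 4) Unreached endpoint = highest concentration. GI50 = concentration required for 50% inhibition of growth.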 Active and inactive are the calls of the source. Cut-off read from the data, not from the text of the source: active = GI50 up to about 1.1 µM and inactive = higher. Bounds are passed on as bounds.

Regarding `N=c1oc2cc(O)ccc2cc1C(=O)Nc1ccccn1`, the GI50 (commonly the concentration at which growth is held to half of that of the control) is 55 µM (inactive) in [1]; 56.1 µM (inactive) in test [2]; 47.2 µM (inactive) in test [3]; 51.9 µM (inactive) in test [4]; 34.4 µM (inactive) in test [5]; 24.7 µM (inactive) in test [6]. Further, the GI50 in test [7] is 3.43 µM (inactive); in [8], 44.5 µM (inactive); in test [9], 27.8 µM (inactive); in [10], 14.9 µM (inactive); in [11], 23.4 µM (inactive); in test [12], 16.4 µM (inactive). Also, the GI50 in [13] is 29.7 µM (inactive); in test [14] it was 1.78 µM (inactive); in test [15] it was 40.2 µM (inactive); in test [16] it was > 100 µM (inactive); in [17], 32.2 µM (inactive); in test [18] it was > 100 µM (inactive). For the same compound, the GI50 in [19] was > 100 µM (inactive); in test [20] it was 37.2 µM (inactive).

Consider `CCCCC(=O)Nc1ccc2cc(C(=O)OC)c(ON3C(=O)c4ccccc4C3=O)nc2n1`, for which the GI50 in test [1] was 30.3 µM (inactive); in test [2], 15.7 µM (inactive); in test [3], 17.9 µM (inactive); in test [4] it was 22.2 µM (inactive); in [5], 31 µM (inactive); in [6], 27.4 µM (inactive). The GI50 in test [7] was 23.3 µM (inactive); in test [8] it was 37.6 µM (inactive); in test [9] it was 71.3 µM (inactive); in test [10], 43.2 µM (inactive); in test [11], 28.1 µM (inactive); in test [12], 17 µM (inactive). Moreover, the GI50 in test [14] was 28.9 µM (inactive); in test [15], 33.1 µM (inactive); in [16], 26.4 µM (inactive); in [17], 25 µM (inactive); in test [18], 33.8 µM (inactive); in test [19], 27.2 µM (inactive). In addition, in test [20], the GI50 was 48.1 µM (inactive).

As to `Cc1cc(S(=O)(=O)N/C(=C(\C#N)C(=O)c2ccccc2)[n+]2ccc(N(C)C)cc2)c([S-])cc1Cl`, the GI50 was > 100 µM (inactive) in test [1]; 37.2 µM (inactive) in test [2]; 20.9 µM (inactive) in [3]; > 100 µM (inactive) in test [4]; 32.4 µM (inactive) in test [6]; 35.6 µM (inactive) in test [7]. For the same compound, the GI50 in test [8], in test [9], in test [10], in test [11], in [12] and in test [13] was > 100 µM (inactive) throughout. For the same compound, the GI50 in test [14] was 60.1 µM (inactive); in test [15], 32 µM (inactive); in test [16], 0.33 µM (active); in test [17] it was > 100 µM (inactive); in test [18], > 100 µM (inactive); in test [19] it was > 100 µM (inactive). The GI50 in [20] was > 100 µM (inactive).

Take `Cc1cc(S(=O)(=O)N=C2N(Cc3ccccc3)CCN2Cc2ccccc2)c(S)cc1Cl`: the GI50 is > 100 µM (inactive) in [1]; > 100 µM (inactive) in test [2]; > 100 µM (inactive) in [3]; > 100 µM (inactive) in test [4]; 70.8 µM (inactive) in test [5]; > 100 µM (inactive) in test [6]. In addition, the GI50 was 40.6 µM (inactive) in test [7]; > 100 µM (inactive) in test [8]; > 100 µM (inactive) in test [9]; > 100 µM (inactive) in [10]; > 10 µM (inactive) in test [11]; > 100 µM (inactive) in [12]. The GI50 is > 100 µM (inactive) in test [13]; > 100 µM (inactive) in [14]; > 100 µM (inactive) in [15]; > 100 µM (inactive) in [16]; > 100 µM (inactive) in test [17]; 48.9 µM (inactive) in test [18]. The GI50 in test [19] and in test [20] was > 100 µM (inactive) each time.

On to `O=CC(=C(I)I)c1ccccc1`, for which the GI50 in test [1] was 3.87 µM (inactive); in [2], 0.855 µM (active); in test [3] it was 2.15 µM (inactive); in [4], 3.03 µM (inactive); in [5] it was 1.66 µM (inactive); in test [6], 21.6 µM (inactive). The GI50 in test [7] was 2 µM (inactive); in test [8], 2.07 µM (inactive); in test [9] it was 0.2 µM (active); in test [10] it was 3.11 µM (inactive); in test [11] it was 3 µM (inactive); in test [12], 2.14 µM (inactive). In addition, the GI50 was 3.04 µM (inactive) in [13]; 0.289 µM (active) in test [14]; 11.5 µM (inactive) in test [15]; 2.57 µM (inactive) in [16]; 2.46 µM (inactive) in [17]; 7.78 µM (inactive) in test [18]. The GI50 in test [19] is 20.2 µM (inactive); in test [20] it was 15.9 µM (inactive).

`COc1cc(C2c3cc4c(cc3OC(NCCO)C2C)OCO4)cc(OC)c1OC` (stereo not drawn): the GI50 in [1] is 0.382 µM (active); in test [2], 0.364 µM (active); in test [3] it was 0.431 µM (active); in test [4], 0.485 µM (active); in [5], 0.42 µM (active); in test [6], 0.325 µM (active). In addition, the 50% growth inhibitory concentration (GI50) in [7] is 0.241 µM (active); in test [8], 0.0927 µM (active); in test [9], 0.197 µM (active); in test [10], 0.344 µM (active); in test [11] it was 0.755 µM (active); in [12], 1.8 µM (inactive). Moreover, the concentration for 50% growth inhibition (GI50) in test [13] was 0.369 µM (active); in [14] it was 0.489 µM (active); in test [15] it was 13.1 µM (inactive); in [16], 0.188 µM (active); in test [17], 2.2 µM (inactive); in test [18], 0.274 µM (active). Moreover, the 50% growth inhibitory concentration (GI50) in test [19] was 0.762 µM (active); in test [20], 0.553 µM (active).

Consider `CC(C(=O)c1ccncc1)c1ccccn1` (stereo not drawn), for which the GI50 in test [1], in test [2], in test [3], in test [4], in [5] and in test [6] was > 100 µM (inactive) in each case. Besides, the GI50 in test [7], in test [8], in [9], in test [10], in [11] and in [12] was > 100 µM (inactive) each time. The GI50 in test [13], in test [15], in test [16], in test [17], in [18] and in test [19] was > 100 µM (inactive) in each case. Also, the GI50 in test [20] was > 100 µM (inactive).

Take `NCCNCCCCCCNC(=O)c1cccc2cc3ccccc3nc12`: the GI50 in test [1] is 2 µM (inactive); in [2] it was 2.15 µM (inactive); in [3], 3.94 µM (inactive); in test [4], 4.78 µM (inactive); in test [5], 1.47 µM (inactive); in [6] it was 2.43 µM (inactive). Besides, the GI50 in test [7] is 1.42 µM (inactive); in [8] it was 3.59 µM (inactive); in test [9], 1.03 µM (active); in test [10] it was 1.1 µM (active); in [11], 2.28 µM (inactive); in test [12], 1.36 µM (inactive). The GI50 is 1.59 µM (inactive) in test [13]; 0.838 µM (active) in test [14]; 8.59 µM (inactive) in [15]; 2.24 µM (inactive) in [16]; 2.03 µM (inactive) in test [17]; 3.6 µM (inactive) in test [18]. Moreover, the GI50 in test [19] was 1.7 µM (inactive).

Turning to `COc1cc2c[n+](C)c3c(c2cc1OC)Cc1cc2c(cc1-3)OCO2`, the GI50 in [1], in test [2], in [3], in test [4], in test [5] and in test [6] was > 100 µM (inactive) each time. Further, the GI50 is 52.4 µM (inactive) in test [7]; > 100 µM (inactive) in test [8]; 71.4 µM (inactive) in test [9]; > 100 µM (inactive) in test [10]; > 100 µM (inactive) in [12]; > 100 µM (inactive) in test [13]. For the same compound, the GI50 in test [14] is 48.9 µM (inactive); in [15] it was > 100 µM (inactive); in test [16], > 100 µM (inactive); in test [17], > 100 µM (inactive); in test [18] it was > 100 µM (inactive); in test [19], > 100 µM (inactive). The GI50 in test [20] is > 100 µM (inactive).

In the case of `COc1cccc2c1NC(=O)Cc1c-2[nH]c2ccccc12`, the GI50 in test [1] is 46.9 µM (inactive); in test [3], > 100 µM (inactive); in test [4], > 100 µM (inactive); in test [5] it was > 100 µM (inactive); in test [6], > 100 µM (inactive); in [7] it was 49.9 µM (inactive). The GI50 in [8] is 29.1 µM (inactive); in [9], > 100 µM (inactive); in test [10], 88.5 µM (inactive); in test [11], > 100 µM (inactive); in test [12], > 100 µM (inactive); in [13] it was 47.6 µM (inactive). Also, the GI50 in test [14] is 13.6 µM (inactive); in [15], > 100 µM (inactive); in test [16] it was > 100 µM (inactive); in test [18], > 100 µM (inactive); in test [19], > 100 µM (inactive); in test [20], > 100 µM (inactive).
